Reference: US10143681B2, “Factor XIa inhibitors” (MERCK SHARP & DOHME CORP., priority 2016, dated 2018)

Key:
[1] = molecular target: human Factor XIa (Homo sapiens (Human), UniProt P03951); assay: Factor XIa Assay; type: biochemical; details: for IC50: human Factor XIa 0.04 nM, 30 min pre-incubation at 25° C., substrate GPR-AFC, read-out: FXIa IC50; for inhibition at 1 µM: @ 1000 nM compound, read-out: FXIa % Inh. @ 1000 nM
Method: The effectiveness of a compound of the present invention as an inhibitor of Coagulation Factor XIa can be determined using a relevant purified serine protease, and an appropriate synthetic substrate. The rate of hydrolysis of the chromogenic or fluorogenic substrate by the relevant serine protease was measured both in the absence and presence of compounds of the present invention. Assays were conducted at room temperature or at 37° C. […] A decrease in the rate of fluorescence change in the presence of inhibitor is indicative of enzyme inhibition. Such methods are known to one skilled in the art. The results of this assay are expressed as the half-maximal inhibitory concentrations (IC50), or the inhibitory constant, Ki.
Compounds were pre-incubated for 30 minutes at 25° C. with human (0.04 nM) Factor XIa in 50 mM HEPES buffer with 150 mM sodium chloride, 5 mM calcium chloride, 0.1% PEG 8000, pH 7.4. Factor XIa enzymatic activity was determined by addition of the substrate glycine-proline-arginine-7-amido-4-trifluoromethylcoumarin (GPR-AFC) and measurement of the fluorescence at 400/505 nm after a 60 minute incubation at 25° C. The % inhibition for each data point was calculated from the data and analyzed using the log (inhibitor) vs. response four parameters equation to determine the half-maximal inhibitory concentrations (IC50). The IC50 were converted to equilibrium inhibitory constants (Ki) using the Cheng-Prusoff equation.

[2] = test system: Human plasma (intrinsic coagulation cascade); assay: Activated Partial Thromboplastin Time (aPTT) Assay; details: concentration that causes a 50% (1.5×) increase of clot time over vehicle
Method: Activated partial thromboplastin time (aPTT) is a clotting test that measures the intrinsic coagulation cascade. The test is performed in sodium citrated plasma. Human plasma is made by collecting blood from healthy donors of both genders into Na citrate tubes (Sarstedt coagulation 9NC/10 ml). Blood is centrifuged at 1500×g and the plasma is collected. aPTT is checked on each individual donor and those within the normal range (28-40 seconds) are pooled, aliquoted, and stored at −80 C. Test samples are prepared by spiking inhibitors or vehicle into plasma. These spiked samples are then run on a coagulation analyzer (STA-R Evolution, Stago Diagnostica). In general, the analyzer performs the following steps: Factor XII is activated by addition of ellagic acid (Pacific Hemostasis), and then time to clot is measured after re-calcification of the sample. Inhibition of FXI will cause aPTT clot time to be prolonged. The data is expressed as percent increase over vehicle control clot time and the concentration that causes a 50% (1.5×) percent increase of clot time are reported.

human Factor XIa, sequence (P03951 388-625): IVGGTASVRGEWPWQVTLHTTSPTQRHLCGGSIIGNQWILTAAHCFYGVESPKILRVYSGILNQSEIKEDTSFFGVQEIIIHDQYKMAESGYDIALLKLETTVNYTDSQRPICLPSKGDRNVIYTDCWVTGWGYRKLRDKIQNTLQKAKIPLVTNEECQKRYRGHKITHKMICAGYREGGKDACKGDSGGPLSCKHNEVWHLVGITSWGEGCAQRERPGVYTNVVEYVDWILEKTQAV
human Factor XIa, sequence (P03951 19-387 partner): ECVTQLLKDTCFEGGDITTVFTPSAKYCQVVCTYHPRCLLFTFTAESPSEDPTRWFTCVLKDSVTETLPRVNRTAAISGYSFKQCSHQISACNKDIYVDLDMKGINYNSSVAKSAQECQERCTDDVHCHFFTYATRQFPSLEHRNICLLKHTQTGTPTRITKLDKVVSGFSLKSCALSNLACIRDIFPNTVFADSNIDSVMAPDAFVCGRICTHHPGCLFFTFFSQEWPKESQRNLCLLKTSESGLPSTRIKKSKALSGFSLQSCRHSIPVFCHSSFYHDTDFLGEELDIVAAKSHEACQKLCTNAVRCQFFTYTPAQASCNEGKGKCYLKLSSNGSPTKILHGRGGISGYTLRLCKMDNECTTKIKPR

SMILES	IC50 [1] [µM]	aPTT (1.5x) [2] [µM]	inhibition at 1 µM [1] [%]
O=C(O)c1ccc(NC(=O)[C@@H](CC2CCC2)c2ccc(-c3c(C(F)F)ccc(Cl)c3F)c[n+]2[O-])cc1 (mixture of isomers) [Example 3, (S)- and (R)-2-(1-((4-Carboxyphenyl)amino)-3-cyclobutyl-1-oxopropan-2-yl)-5-(3-chloro-6-(difluoromethyl)-2-fluorophenyl)pyridine 1-oxide]	0.039	>100	
O=C(O)c1ccc(NC(=O)[C@@H](CC2CCC2)c2ccc(-c3c(C(F)F)ccc(Cl)c3F)c[n+]2[O-])cc1 (mixture of isomers) [Example 4, (S)- and (R)-2-(1-((4-Carboxyphenyl)amino)-3-cyclobutyl-1-oxopropan-2-yl)-5-(3-chloro-6-(difluoromethyl)-2-fluorophenyl)pyridine 1-oxide]		0.55	
O=C(O)c1ccc(NC(=O)[C@@H](CC2CC2)c2ccc(-c3c(C(F)F)ccc(Cl)c3F)c[n+]2[O-])cc1 (mixture of isomers) [Example 23, (S)- and (R)-2-(1-((4-carboxyphenyl)amino)-3-cyclopropyl-1-oxopropan-2-yl)-5-(3-chloro-6-(difluoromethyl)-2-fluorophenyl)pyridine 1-oxide]		0.61	
O=C(O)c1ccc(NC(=O)C(CC2CC2)c2ccc(-c3cc(Cl)ccc3OC(F)F)c[n+]2[O-])cc1 (single isomer, unassigned) [Example 6, (S)- or (R)-4-[(2-{5-[5-chloro-2-(difluoromethoxy)phenyl]-1-oxidopyridin-2-yl}-3-cyclopropylpropanoyl)amino] benzoic acid]	> 1	>100	30
CCOc1ccc(Cl)c(F)c1-c1ccc(C(CC2CC2)C(=O)Nc2ccc(C(=O)O)cc2)[n+]([O-])c1 (single isomer, unassigned) [Example 8, (S)- or (R)-4-({2-[5-(3-chloro-6-ethoxy-2-fluorophenyl)-1-oxidopyridin-2-yl]-3-cyclopropylpropanoyl}amino) benzoic acid]	0.968	>100	
CC(C)Oc1ccc(Cl)c(F)c1-c1ccc(C(CC2CC2)C(=O)Nc2ccc(C(=O)O)cc2)[n+]([O-])c1 (single isomer, unassigned) [Example 16, (S)- or (R)-4-[(2-{5-[3-chloro-2-fluoro-6-(1-methylethoxy)phenyl]-1-oxidopyridin-2-yl}-3-cyclopropylpropanoyl)amino] benzoic acid]	> 1	>100	33
CC(C)Oc1ccc(Cl)c(F)c1-c1ccc(C(CC2CC2)C(=O)Nc2ccc(C(=O)O)cc2)[n+]([O-])c1 (single isomer, unassigned) [Example 17, (R)- or (S)-4-[(2-{5-[3-chloro-2-fluoro-6-(1-methylethoxy)phenyl]-1-oxidopyridin-2-yl}-3-cyclopropylpropanoyl)amino] benzoic acid]	0.024	>100	
O=C(O)c1ccc(NC(=O)C(CC2CCCC2)c2ccc(-c3c(OC(F)F)ccc(Cl)c3F)c[n+]2[O-])cc1 (single isomer, unassigned) [Example 18, (S)- or (R)-4-[(2-{5-[3-chloro-6-(difluoromethoxy)-2-fluorophenyl]-1-oxidopyridin-2-yl}-3-cyclopentylpropanoyl)amino] benzoic acid]	0.1	>100	
O=C(O)c1ccc(NC(=O)C(CC2CC2)c2ccc(-c3cc(Cl)ccc3C(F)F)c[n+]2[O-])cc1 (single isomer, unassigned) [Example 28, (S)- or (R)-2-(1-((4-carboxyphenyl)amino)-3-cyclopropyl-1-oxopropan-2-yl)-5-(5-chloro-2-(difluoromethyl)phenyl)pyridine 1-oxide]	0.293	>100	
C[C@@H]1C[C@H]1C[C@@H](C(=O)Nc1ccc(C(=O)O)cc1)c1ccc(-c2c(OC(F)F)ccc(Cl)c2F)c[n+]1[O-] (single isomer, unassigned) [Example 56]	0.00038	1.34	
CC1(O)CC(CC(C(=O)Nc2ccc(C(=O)O)cc2)c2ccc(-c3c(C(F)F)ccc(Cl)c3F)c[n+]2[O-])C1 (single isomer, unassigned) [Example 83, 2-(1-((4-carboxyphenyl)amino)-3-(3-hydroxy-3-methylcyclobutyl)-1-oxopropan-2-yl)-5-(3-chloro-6-(difluoromethyl)-2-fluorophenyl)pyridine 1-oxide]		0.62	
CC1(O)CC(CC(C(=O)Nc2ccc(C(=O)O)cc2)c2ccc(-c3c(C(F)F)ccc(Cl)c3F)c[n+]2[O-])C1 (single isomer, unassigned) [Example 85, 2-(1-((4-carboxyphenyl)amino)-3-(3-hydroxy-3-methylcyclobutyl)-1-oxopropan-2-yl)-5-(3-chloro-6-(difluoromethyl)-2-fluorophenyl)pyridine 1-oxide]		1	
O=C(O)c1ccc(NC(=O)C(CC2CC2F)c2ccc(-c3c(C(F)F)ccc(Cl)c3F)c[n+]2[O-])cc1 (single isomer, unassigned) [Example 91, 2-(1-((4-carboxyphenyl)amino)-3-(2-fluorocyclopropyl)-1-oxopropan-2-yl)-5-(3-chloro-6-(difluoromethyl)-2-fluorophenyl)pyridine 1-oxide]	0.0279	5.93	
O=C(O)c1ccc(NC(=O)C(CC2CC2F)c2ccc(-c3c(C(F)F)ccc(Cl)c3F)c[n+]2[O-])cc1 (single isomer, unassigned) [Example 92, 2-(1-((4-carboxyphenyl)amino)-3-(2-fluorocyclopropyl)-1-oxopropan-2-yl)-5-(3-chloro-6-(difluoromethyl)-2-fluorophenyl)pyridine 1-oxide]		100	
CC1CCC1CC(C(=O)Nc1ccc(C(=O)O)cc1)c1ccc(-c2c(OC(F)F)ccc(Cl)c2F)c[n+]1[O-] (single isomer, unassigned) [Example 105, 2-(1-((4-carboxyphenyl)amino)-3-(2-methylcyclobutyl)-1-oxopropan-2-yl)-5-(3-chloro-6-(difluoromethoxy)-2-fluorophenyl)pyridine 1-oxide]	0.00061	1.13	
COc1cc(C(CC2CC2)C(=O)Nc2ccc(C(=O)O)cc2)[n+]([O-])cc1-c1c(C(F)F)ccc(Cl)c1F [Example 69, (S)- and (R)-2-(1-((4-carboxyphenyl)amino)-3-cyclopropyl-1-oxopropan-2-yl)-5-(3-chloro-6-(difluoromethyl)-2-fluorophenyl)-4-methoxypyridine 1-oxide]		1.92	
